The term EC50 denotes the concentration giving half of the maximal effect.

Series [1] concerns the target purified porcine brain tubulin (Sus scrofa, UniProt P02554). The experiment in a line: In vitro tubulin polymerization. The settings on record: 10 μM compound.
For the next series, the system named is HeLa cells. The experiment in a line: Cell cycle analysis by flow cytometry. It is filed as cell-based. The conditions noted are these: 40 and 50 nM 11, 75 and 100 nM 21, 18 h. (In general: In flow cytometry, cells or beads pass a laser one at a time.)
The subject of a further series is MDA-MB-435 cells. Description: Apoptosis detection, Western blot of cleaved PARP. It is filed as cell-based, human.
Series [2] concerns SK-OV-3 MDR-1/M-6-6. The settings on record: other colchicine site agents; cited from earlier work.
A further series deals with HUVEC endothelial cells. The experiment in a line: Breast cancer/endothelial cell IC50, HUVEC. It is filed as cell-based. The conditions noted are these: Homo sapiens, read-out: IC50, HUVEC.
The subject of the next series is MDA-MB-435. Description: Breast cancer/endothelial cell IC50, MDA-MB-435. It is filed as cell-based. The conditions noted are these: Homo sapiens, MDA-MB-435, read-out: IC50, MDA-MB-435.
The next series has as its system 4T-1. Description: Breast cancer/endothelial cell IC50, 4T-1. It is filed as cell-based, murine. The conditions noted are these: Mus musculus, 4T1, read-out: IC50, 4T-1.
The test system of a further series is MDA-MB-231. Description: Breast cancer/endothelial cell IC50, MDA-MB-231. The settings on record: Homo sapiens, MDA-MB-231, read-out: IC50, MDA-MB-231. It is filed as cell-based.
The next series relates to MCF-7. Description: Breast cancer/endothelial cell IC50, MCF-7. It is filed as cell-based. The settings on record: Homo sapiens, MCF7, read-out: IC50, MCF-7.
The test system of series [3] is SK-OV-3 MDR-1/M-6-6. Description: cells. The settings on record: Homo sapiens, SKOV3-MDR1-M6/6, read-out: Antiproliferative activity IC50, SK-OV-3 MDR-1/M-6-6.
The subject of series [4] is cellular microtubules in A-10 cells. Description: Loss of cellular microtubules, indirect immunofluorescence in A-10 cells. It is filed as cell-based.
For another series, the system named is 4T1 orthotopic allograft. The experiment in a line: 4T1 triple negative breast orthotopic allograft model. The settings on record: 4T1 orthotopic model.
The subject of series [5] is MDA-MB-435 flank xenograft. Description: MDA-MB-435 flank xenograft model. The settings on record: vs carrier treated mice. It is filed as in vivo, NCr athymic nu/nu mice.

Chain of purified porcine brain tubulin (P02554 whole entry): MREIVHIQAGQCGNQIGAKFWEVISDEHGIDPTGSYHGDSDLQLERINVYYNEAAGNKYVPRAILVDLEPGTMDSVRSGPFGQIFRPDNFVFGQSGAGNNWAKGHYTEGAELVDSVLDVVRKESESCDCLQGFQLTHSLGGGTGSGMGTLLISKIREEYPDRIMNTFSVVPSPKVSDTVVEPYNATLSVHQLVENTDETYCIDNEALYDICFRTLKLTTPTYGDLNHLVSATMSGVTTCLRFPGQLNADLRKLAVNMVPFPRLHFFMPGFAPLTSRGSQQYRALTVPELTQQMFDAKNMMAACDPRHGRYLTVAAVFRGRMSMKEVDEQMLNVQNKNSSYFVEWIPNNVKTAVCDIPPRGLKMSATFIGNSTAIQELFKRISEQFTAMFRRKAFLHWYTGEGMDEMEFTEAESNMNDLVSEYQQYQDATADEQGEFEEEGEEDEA
Chain of purified porcine brain tubulin (P02550 whole entry, further chain): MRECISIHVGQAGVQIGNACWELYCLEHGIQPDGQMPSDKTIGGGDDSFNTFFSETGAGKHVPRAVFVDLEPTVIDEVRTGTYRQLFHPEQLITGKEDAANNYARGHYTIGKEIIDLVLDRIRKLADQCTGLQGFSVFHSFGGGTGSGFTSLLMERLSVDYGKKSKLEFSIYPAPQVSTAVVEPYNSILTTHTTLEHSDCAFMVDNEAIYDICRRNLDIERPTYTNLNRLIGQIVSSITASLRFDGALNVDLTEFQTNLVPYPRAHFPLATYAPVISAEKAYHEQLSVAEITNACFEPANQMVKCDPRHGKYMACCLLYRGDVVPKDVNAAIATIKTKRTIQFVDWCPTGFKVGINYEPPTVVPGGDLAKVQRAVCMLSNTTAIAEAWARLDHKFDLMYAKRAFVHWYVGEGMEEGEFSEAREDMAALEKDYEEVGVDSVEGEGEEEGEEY

For the compound `COc1ccc(N(C)c2nc(C)nc3oc(C)cc23)cc1` [Compound 11, N-(4-methoxyphenyl)-N,2,6-trimethylfuro[2,3-d]pyrimidin-4-amine], in series [1], the “inhibition of polymerization of purified tubulin” value is on record as “almost completely inhibited the polymerization of tubulin”. Further, the “effect on cell cycle distribution (G2/M)” value in the series with HeLa cells is reported as “initiated mitotic accumulation”. Besides, the “cleaved PARP level” value with MDA-MB-435 cells (75 nM 11, 18 h) is reported as “slight increase in cleaved PARP”; in the series with MDA-MB-435 cells (36 h, 75 nM 11, 120 nM 21), “much higher levels of cleaved PARP”.

Consider `COc1cc2c(cc1O)CC[C@@H]1[C@@H]2CC[C@]2(C)[C@@H](O)CC[C@@H]12` [2-methoxyestradiol], for which the “Rr (relative resistance), Pgp-expressing SK-OV-3 pair” value in the series on SK-OV-3 MDR-1/M-6-6 [2] is 1.5–2.6.

Regarding `COc1ccc(/C=C\c2cc(OC)c(OC)c(OC)c2)cc1O` [CA-4, combretastatin A-4], the IC50 in the series on HUVEC endothelial cells was 17.7 ± 3.6 nM; in the series with MDA-MB-435, 52.2 nM; in the series with 4T-1, 69.6 ± 8 nM; in the series on MDA-MB-231 it was 228 ± 2.9 nM; in the series on MCF-7, 24.9 ± 1.4 nM.

Turning to `CCCCN(c1ccc(OC)cc1)c1nc(C)nc2oc(C)cc12` [Compound 14, N-butyl-N-(4-methoxyphenyl)-2,6-dimethylfuro[2,3-d]pyrimidin-4-amine], the IC50 in the series with SK-OV-3 MDR-1/M-6-6 [3] was over 10000 nM.

In the case of `COc1ccc(Nc2nc(C)nc3oc(C)cc23)cc1` [Compound 10, N-(4-methoxyphenyl)-2,6-dimethylfuro[2,3-d]pyrimidin-4-amine], the “effect on cellular microtubules” value in series [4] is “inactive”.

Take `COc1ccc(N(C)c2nc(C)nc3oc(C)cc23)cc1.Cl` [Compound 21, N-(4-methoxyphenyl)-N,2,6-trimethylfuro[2,3-d]pyrimidin-4-amine hydrochloride]: in series [1], the “inhibition of polymerization of purified tubulin” value was “almost completely inhibited the polymerization of tubulin”. In addition, the “effect on cell cycle distribution (G2/M)” value with HeLa cells is listed as “initiated dose-dependent mitotic accumulation”. Moreover, the animal weight loss result with 4T1 orthotopic allograft was “less weight loss than docetaxel”. Moreover, in the series on 4T1 orthotopic allograft (21 twice weekly at MTD), the primary tumor growth result is on record as “as active as docetaxel at reducing primary tumor growth”. The lung metastases result with 4T1 orthotopic allograft (compared to docetaxel) is on record as “reduced the size (Figure 9D; metastases at arrows) but not the number”. Moreover, the “tumor vascular density (CD31/PECAM-1 staining)” value in series [5] was “decreased tumor vascular density”. In series [4], the “effect on cellular microtubules” value is given as “dose-dependent loss of cellular microtubules”. Moreover, the EC50 in [4] (read-out: EC50 for microtubule depolymerization, 18 h, 50% loss of cellular microtubules) turned out to be 570 nM.

These data come from PMC4089508 (Bioorganic & medicinal chemistry, 2014).
